A compilation of properties of binary mixtures (doi:10.1021/je050387r)

Assay: xn = mol fraction of the nth substance listed
Details: 101 kPa

O + CCCC[n+]1ccn(C)c1.F[B-](F)(F)F
x1 = 1
Details	viscosity [mPa·s]
303.15 K	0.8
308.15 K	0.72
313.15 K	0.65
318.15 K	0.6
323.15 K	0.55
343.15 K	0.4
353.15 K	0.35

CCCC[n+]1ccn(C)c1.F[B-](F)(F)F + O
viscosity [mPa·s]
Details	x2 = 0	x2 = 0.1002	x2 = 0.209	x2 = 0.2984	x2 = 0.4001	x2 = 0.5014	x2 = 0.6004	x2 = 0.7	x2 = 0.8	x2 = 0.8999
303.15 K	–	47.6	34.9	23.3	16.6	12	10	6.7	4.36	2.53
308.15 K	58.2	–	–	19.4	13.6	10.5	8.7	5.85	3.8	2.21
313.15 K	–	30.7	23.5	16.2	11.4	–	–	5.35	3.36	1.95
318.15 K	37.8	25.7	19.6	14.1	9.7	7.8	–	4.53	2.99	1.73
323.15 K	31.1	21.5	–	11.7	–	6.8	5.69	4.05	2.68	1.54
333.15 K	21.5	15.4	12	8.6	6.2	5.28	4.75	3.29	2.19	1.28
343.15 K	15.6	11.5	9	–	4.68	4.24	–	–	1.82	–
353.15 K	11.5	–	6.8	4.96	3.56	3.44	–	2.31	1.54	0.91
